# Experimental data reported in ChEMBL document CHEMBL1240532, “Spiroindolones, a potent compound class for the treatment of malaria” (Science, 2010).
# Experiments:
# hERG (KCNH2) = hERG (KCNH2) (Homo sapiens, UniProt Q12809); experiment: Inhibition of human ERG at 30 uM by patch clamp method
# [1] = target: Cholecystokinin receptor type A (Homo sapiens, UniProt P32238); experiment: Binding affinity to human recombinant cholecystokinin A receptor
# [2] = target: Growth hormone secretagogue receptor type 1 (Homo sapiens, UniProt Q92847); experiment: Binding affinity to human recombinant Ghrelin receptor
# [3] = target: Endothelin receptor type B (Homo sapiens, UniProt P24530); experiment: Binding affinity to human recombinant endothelin B receptor
# Plasmodium falciparum [4] = experiment: Antimalarial activity against Plasmodium falciparum Dd2 after 72 hrs by SYBR green based fluorescence assay; format: functional, organism-based; conditions: Dd2, 72 h
# [5] = target: 5-hydroxytryptamine receptor 3A (Homo sapiens, UniProt P46098); experiment: Binding affinity to human recombinant serotonin 5HT3 receptor
# Vasopressin V1a receptor = Vasopressin V1a receptor (Homo sapiens, UniProt P37288); experiment: Binding affinity to human recombinant vasopressin V1a receptor
# Motilin receptor = Motilin receptor (Homo sapiens, UniProt O43193); experiment: Binding affinity to human recombinant motilin receptor
# Plasmodium falciparum [6] = experiment: microbe, parasite or virus in culture; conditions: Dd2, 72 h
# Description: Antimalarial activity against Plasmodium falciparum Dd2 containing attB site inserted in parasite genome and using EF1-alpha promoter driven expressing ATP4 D1247Y mutant after 72 hrs by SYBR green based fluorescence assay
# Adenosine receptor A3 = Adenosine receptor A3 (Homo sapiens, UniProt P0DMS8); experiment: Binding affinity to human recombinant adenosine 3 receptor
# [7] = Cmax in Wistar rat at 23.7 mg/kg, po; format: ADME, organism-based; set-up: dose 23.7 mg/kg, route oral; conditions: in vivo
# [8] = target: Gastric inhibitory polypeptide receptor (Rattus norvegicus, UniProt P43219); experiment: Binding affinity to rat Gip receptor
# Plasmodium falciparum [9] = experiment: microbe, parasite or virus in culture; conditions: TM90C2A
# [10] = Cmax in CD1 mouse at 24.6 mg/kg, po; format: ADME, organism-based; set-up: dose 24.6 mg/kg, route oral; conditions: in vivo
# [11] = target: 5-hydroxytryptamine receptor 2A (Homo sapiens, UniProt P28223); experiment: Binding affinity to human recombinant serotonin 5-HT2A receptor
# [12] = Clearance in Wistar rat at 5 mg/kg, iv; format: ADME, organism-based; set-up: dose 5 mg/kg, route intravenous; conditions: in vivo
# Mu-type opioid receptor = Mu-type opioid receptor (Homo sapiens, UniProt P35372); experiment: Binding affinity to human recombinant opiate mu receptor
# [13] = Intrinsic clearance in dog liver microsome; format: ADME, Canis lupus familiaris; conditions: liver microsomes
# Plasmodium falciparum [14] = experiment: Inhibition of protein synthesis in NITD609-resistant Plasmodium falciparum Dd2 Clone1 within 1 hrs by [35S]Met/Cys incorporation assay; format: functional
# [15] = target: Alpha-1A adrenergic receptor (Homo sapiens, UniProt P35348); experiment: Binding affinity to human recombinant alpha 1a receptor
# Cannabinoid receptor 1 = Cannabinoid receptor 1 (Homo sapiens, UniProt P21554); experiment: Binding affinity to human recombinant cannabinoid 1 receptor
# [16] = Partition coefficient, log P of the compound at pH 7.4; format: physicochemical; conditions: octanol/water
# [17] = AUC (0 to infinity) in CD1 mouse at 5.4 mg/kg, iv; format: ADME, organism-based; set-up: time infinity, dose 5.4 mg/kg, route intravenous; conditions: plasma
# Plasmodium falciparum [18] = experiment: Antimalarial activity against chloroquine and pyrimethamine-resistant Plasmodium falciparum V1/S after 48 hrs incubation by [3H]hypoxanthine incorporation assay
# [19] = AUC (0 to infinity) in Wistar rat at 23.7 mg/kg, po; format: ADME, organism-based; set-up: time infinity, dose 23.7 mg/kg, route oral; conditions: plasma
# Glucagon receptor = Glucagon receptor (Homo sapiens, UniProt P47871); experiment: Binding affinity to human recombinant glucagon receptor
# Endothelin-1 receptor = Endothelin-1 receptor (Homo sapiens, UniProt P25101); experiment: Binding affinity to human recombinant endothelin A receptor
# [20] = target: 5-hydroxytryptamine receptor 2B (Homo sapiens, UniProt P41595); experiment: Binding affinity to human recombinant serotonin 5-HT2B receptor
# [21] = target: 5-hydroxytryptamine receptor 2C (Homo sapiens, UniProt P28335); experiment: Binding affinity to human recombinant serotonin 5HT2C receptor
# [22] = Solubility in pH 6.8 nuffer; format: physicochemical; conditions: buffer
# [23] = target: Muscarinic acetylcholine receptor M3 (Homo sapiens, UniProt P20309); experiment: Binding affinity to human recombinant muscarinic M3 receptor
# [24] = Cytotoxicity against human HepG2 cells after 4 days by XTT assay; format: cell-based
# [25] = AUC (0 to infinity) in Wistar rat at 5 mg/kg, iv; format: ADME, organism-based; set-up: time infinity, dose 5 mg/kg, route intravenous; conditions: plasma
# [26] = target: Alpha-2A adrenergic receptor (Homo sapiens, UniProt P08913); experiment: Binding affinity to human recombinant alpha-2a receptor
# in vivo [27] = conditions: Wistar, rat, iv, 5 mg/kg
# Description: Elimination half life in Wistar rat at 5 mg/kg, iv
# Glucocorticoid receptor = Glucocorticoid receptor (Homo sapiens, UniProt P04150); experiment: Binding affinity to human recombinant glucocorticoid receptor
# Adenosine receptor A2a = Adenosine receptor A2a (Homo sapiens, UniProt P29274); experiment: Binding affinity to human recombinant adenosine 2a receptor
# [28] = target: GABA-A receptor; agonist GABA site; experiment: Binding affinity to human recombinant GABAA receptor; format: protein-complex assay
# in vivo [29] = conditions: Wistar, rat, po, 23.7 mg/kg
# Description: Elimination half life in Wistar rat at 23.7 mg/kg, po
# Plasmodium falciparum [30] = experiment: Inhibition of protein synthesis in NITD609-resistant Plasmodium falciparum Dd2 Clone3 within 1 hrs by [35S]Met/Cys incorporation assay; format: functional
# [31] = Mutagenic activity in Salmonella Typhimurium by Ames test; format: toxicity; conditions: salmonella enterica subsp. enterica serovar typhimurium
# [32] = Volume of distribution at steady state in Wistar rat at 5 mg/kg, iv; format: ADME, organism-based; set-up: dose 5 mg/kg, route intravenous; conditions: in vivo, read-out: Vdss
# Thromboxane A2 receptor = Thromboxane A2 receptor (Homo sapiens, UniProt P21731); experiment: Binding affinity to human recombinant thromboxane A2 receptor
# [33] = target: Sodium-dependent noradrenaline transporter (Homo sapiens, UniProt P23975); experiment: Binding affinity to human recombinant norepinephrine transporter
# Sodium-dependent noradrenaline transporter, sequence (P23975 whole entry): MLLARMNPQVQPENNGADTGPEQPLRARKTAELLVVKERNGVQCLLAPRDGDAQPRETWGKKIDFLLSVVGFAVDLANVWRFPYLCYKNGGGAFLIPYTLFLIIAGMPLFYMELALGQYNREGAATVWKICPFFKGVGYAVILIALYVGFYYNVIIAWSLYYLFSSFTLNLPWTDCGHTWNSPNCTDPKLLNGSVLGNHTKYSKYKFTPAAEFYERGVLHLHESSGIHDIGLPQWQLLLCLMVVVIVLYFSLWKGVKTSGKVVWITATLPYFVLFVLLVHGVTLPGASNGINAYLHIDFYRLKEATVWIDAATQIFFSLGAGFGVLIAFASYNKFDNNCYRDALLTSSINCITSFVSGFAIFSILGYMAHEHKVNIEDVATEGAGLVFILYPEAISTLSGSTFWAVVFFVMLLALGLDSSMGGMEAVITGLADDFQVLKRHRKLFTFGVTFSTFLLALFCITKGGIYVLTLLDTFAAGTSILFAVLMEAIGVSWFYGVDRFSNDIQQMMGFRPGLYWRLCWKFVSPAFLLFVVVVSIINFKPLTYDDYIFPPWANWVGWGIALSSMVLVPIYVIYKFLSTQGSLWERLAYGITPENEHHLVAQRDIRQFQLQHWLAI
# 5-hydroxytryptamine receptor 3A, sequence (P46098 whole entry): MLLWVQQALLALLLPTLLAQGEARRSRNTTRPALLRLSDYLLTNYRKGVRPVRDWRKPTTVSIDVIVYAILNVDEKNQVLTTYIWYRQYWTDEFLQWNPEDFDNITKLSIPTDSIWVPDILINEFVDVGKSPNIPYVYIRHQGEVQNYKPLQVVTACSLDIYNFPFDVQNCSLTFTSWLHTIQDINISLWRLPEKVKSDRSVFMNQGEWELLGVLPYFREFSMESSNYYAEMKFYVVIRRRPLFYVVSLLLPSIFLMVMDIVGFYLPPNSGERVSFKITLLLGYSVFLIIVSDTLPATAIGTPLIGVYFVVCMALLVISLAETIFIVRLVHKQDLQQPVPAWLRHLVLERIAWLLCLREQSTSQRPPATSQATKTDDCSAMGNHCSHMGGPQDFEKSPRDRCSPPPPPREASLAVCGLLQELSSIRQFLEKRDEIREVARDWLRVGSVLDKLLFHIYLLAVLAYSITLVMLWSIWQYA
# Endothelin receptor type B, sequence (P24530 whole entry): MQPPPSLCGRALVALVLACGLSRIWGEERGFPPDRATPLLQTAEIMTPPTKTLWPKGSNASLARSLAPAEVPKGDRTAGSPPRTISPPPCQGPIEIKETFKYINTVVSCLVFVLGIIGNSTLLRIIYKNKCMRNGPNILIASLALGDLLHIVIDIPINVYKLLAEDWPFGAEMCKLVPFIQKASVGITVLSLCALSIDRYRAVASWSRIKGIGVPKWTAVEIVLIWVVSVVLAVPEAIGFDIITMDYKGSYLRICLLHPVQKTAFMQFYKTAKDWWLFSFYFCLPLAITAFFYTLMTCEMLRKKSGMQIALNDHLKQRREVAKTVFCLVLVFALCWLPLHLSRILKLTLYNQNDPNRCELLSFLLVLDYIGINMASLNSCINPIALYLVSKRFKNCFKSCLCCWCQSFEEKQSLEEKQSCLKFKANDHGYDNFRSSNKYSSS
# Glucocorticoid receptor, sequence (P04150 whole entry): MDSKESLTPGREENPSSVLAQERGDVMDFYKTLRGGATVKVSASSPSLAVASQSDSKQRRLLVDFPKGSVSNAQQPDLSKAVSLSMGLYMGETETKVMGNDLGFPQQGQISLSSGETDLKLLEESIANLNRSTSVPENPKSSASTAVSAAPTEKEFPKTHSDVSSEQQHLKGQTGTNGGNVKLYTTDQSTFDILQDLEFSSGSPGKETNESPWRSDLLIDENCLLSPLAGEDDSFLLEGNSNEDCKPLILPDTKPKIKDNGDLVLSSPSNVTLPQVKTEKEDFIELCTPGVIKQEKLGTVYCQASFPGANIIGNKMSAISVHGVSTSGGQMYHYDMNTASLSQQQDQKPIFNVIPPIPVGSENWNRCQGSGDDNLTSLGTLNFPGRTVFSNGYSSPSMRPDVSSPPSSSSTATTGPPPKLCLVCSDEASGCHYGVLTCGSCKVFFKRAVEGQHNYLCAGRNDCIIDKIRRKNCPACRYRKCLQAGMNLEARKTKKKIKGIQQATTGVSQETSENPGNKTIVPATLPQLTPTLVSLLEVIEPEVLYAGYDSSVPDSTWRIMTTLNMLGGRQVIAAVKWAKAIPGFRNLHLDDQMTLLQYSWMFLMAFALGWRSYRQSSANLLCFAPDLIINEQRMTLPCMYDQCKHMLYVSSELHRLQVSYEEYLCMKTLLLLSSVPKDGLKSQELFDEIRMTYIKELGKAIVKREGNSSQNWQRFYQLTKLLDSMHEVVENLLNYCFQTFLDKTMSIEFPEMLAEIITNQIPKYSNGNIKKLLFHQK
# Motilin receptor, sequence (O43193 whole entry): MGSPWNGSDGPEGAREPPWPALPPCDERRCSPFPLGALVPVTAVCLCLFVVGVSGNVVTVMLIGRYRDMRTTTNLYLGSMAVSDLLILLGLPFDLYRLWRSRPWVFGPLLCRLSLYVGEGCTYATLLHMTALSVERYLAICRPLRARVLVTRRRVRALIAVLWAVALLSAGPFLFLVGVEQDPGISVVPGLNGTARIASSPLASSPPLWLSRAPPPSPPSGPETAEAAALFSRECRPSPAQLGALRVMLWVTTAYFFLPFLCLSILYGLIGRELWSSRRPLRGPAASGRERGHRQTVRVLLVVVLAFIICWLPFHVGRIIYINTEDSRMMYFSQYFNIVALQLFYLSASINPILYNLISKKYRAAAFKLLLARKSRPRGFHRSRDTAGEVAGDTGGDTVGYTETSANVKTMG
# hERG (KCNH2), sequence (Q12809 whole entry): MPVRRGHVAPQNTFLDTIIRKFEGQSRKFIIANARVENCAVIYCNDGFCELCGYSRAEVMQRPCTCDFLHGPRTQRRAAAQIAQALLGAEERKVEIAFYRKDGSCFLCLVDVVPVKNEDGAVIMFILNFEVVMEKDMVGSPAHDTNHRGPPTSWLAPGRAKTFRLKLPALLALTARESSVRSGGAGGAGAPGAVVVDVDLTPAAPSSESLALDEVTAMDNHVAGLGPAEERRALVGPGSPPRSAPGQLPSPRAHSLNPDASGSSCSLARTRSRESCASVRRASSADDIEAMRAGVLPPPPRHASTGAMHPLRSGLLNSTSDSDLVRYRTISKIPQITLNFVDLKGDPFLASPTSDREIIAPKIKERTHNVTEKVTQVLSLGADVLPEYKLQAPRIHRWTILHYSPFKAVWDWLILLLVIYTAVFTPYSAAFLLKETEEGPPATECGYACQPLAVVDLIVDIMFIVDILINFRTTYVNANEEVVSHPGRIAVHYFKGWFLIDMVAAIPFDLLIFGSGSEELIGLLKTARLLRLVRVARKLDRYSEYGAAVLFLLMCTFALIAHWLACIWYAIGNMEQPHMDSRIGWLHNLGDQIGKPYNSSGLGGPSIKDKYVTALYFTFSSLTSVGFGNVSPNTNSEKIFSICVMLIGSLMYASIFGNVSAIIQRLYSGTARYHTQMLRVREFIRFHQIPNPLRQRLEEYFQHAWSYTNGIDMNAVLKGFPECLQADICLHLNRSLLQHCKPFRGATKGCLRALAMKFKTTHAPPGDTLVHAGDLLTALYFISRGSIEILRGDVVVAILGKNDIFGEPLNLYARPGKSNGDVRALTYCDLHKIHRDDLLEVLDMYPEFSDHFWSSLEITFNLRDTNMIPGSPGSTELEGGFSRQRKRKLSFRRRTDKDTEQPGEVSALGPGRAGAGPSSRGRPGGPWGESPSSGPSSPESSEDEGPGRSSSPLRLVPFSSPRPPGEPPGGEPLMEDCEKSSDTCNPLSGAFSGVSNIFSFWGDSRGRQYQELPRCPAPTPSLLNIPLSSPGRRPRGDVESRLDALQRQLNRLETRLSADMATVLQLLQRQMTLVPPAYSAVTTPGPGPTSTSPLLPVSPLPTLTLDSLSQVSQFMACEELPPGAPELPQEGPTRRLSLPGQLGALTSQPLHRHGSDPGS
# 5-hydroxytryptamine receptor 2C, sequence (P28335 whole entry): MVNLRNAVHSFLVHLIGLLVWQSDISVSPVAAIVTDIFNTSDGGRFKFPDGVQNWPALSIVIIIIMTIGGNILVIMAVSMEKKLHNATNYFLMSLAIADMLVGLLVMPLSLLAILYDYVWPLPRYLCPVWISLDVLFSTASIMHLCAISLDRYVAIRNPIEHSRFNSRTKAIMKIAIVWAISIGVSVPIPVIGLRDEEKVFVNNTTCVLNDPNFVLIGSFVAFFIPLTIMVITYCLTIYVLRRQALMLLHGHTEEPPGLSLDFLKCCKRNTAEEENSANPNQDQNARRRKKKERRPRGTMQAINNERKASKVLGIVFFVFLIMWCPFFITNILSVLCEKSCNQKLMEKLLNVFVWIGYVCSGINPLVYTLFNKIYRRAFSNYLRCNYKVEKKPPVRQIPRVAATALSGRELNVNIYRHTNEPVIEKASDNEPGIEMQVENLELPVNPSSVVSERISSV
# Alpha-1A adrenergic receptor, sequence (P35348 whole entry): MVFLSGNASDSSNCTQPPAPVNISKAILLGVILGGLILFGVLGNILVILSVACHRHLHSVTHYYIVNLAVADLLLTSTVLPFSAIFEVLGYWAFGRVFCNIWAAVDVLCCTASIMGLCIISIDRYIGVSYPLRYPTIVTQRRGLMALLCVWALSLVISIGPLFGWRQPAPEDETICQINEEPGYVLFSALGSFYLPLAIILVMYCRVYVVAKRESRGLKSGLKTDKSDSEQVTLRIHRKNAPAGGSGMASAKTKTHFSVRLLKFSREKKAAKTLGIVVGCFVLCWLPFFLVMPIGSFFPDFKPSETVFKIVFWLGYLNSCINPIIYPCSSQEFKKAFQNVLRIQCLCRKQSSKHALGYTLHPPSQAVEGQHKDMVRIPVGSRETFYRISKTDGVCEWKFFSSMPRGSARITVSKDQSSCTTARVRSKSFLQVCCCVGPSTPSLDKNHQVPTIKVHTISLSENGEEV
smiles,measurement,setting,value
C[C@H]1Cc2c([nH]c3cc(Cl)c(F)cc23)[C@@]2(N1)C(=O)Nc1ccc(Cl)cc12 [CIPARGAMIN],inhibition at 30 µM,hERG (KCNH2),44.9%
same,IC50,[1],> 30 µM
same,IC50,[2],> 30 µM
same,IC50,[3],> 30 µM
same,IC50,Plasmodium falciparum [4],0.00044 µM
same,IC50,[5],> 10 µM
same,IC50,Vasopressin V1a receptor,> 10 µM
same,IC50,Motilin receptor,> 10 µM
same,IC50,Plasmodium falciparum [6],0.00157 µM
same,IC50,Adenosine receptor A3,8.3 µM
same,Cmax,[7],11.7 µM
same,IC50,[8],> 30 µM
same,IC50,Plasmodium falciparum [9],0.0005 µM
same,Cmax,[10],9.17 µM
same,IC50,[11],> 10 µM
same,clearance,[12],3.48 mL/min/kg
same,IC50,Mu-type opioid receptor,> 10 µM
same,CLint scaled,[13],22.1 mL/min/kg
same,inhibition (INH),Plasmodium falciparum [14],50%
same,IC50,[15],> 10 µM
same,IC50,Cannabinoid receptor 1,> 10 µM
same,logD,[16],4.7
same,AUC(0-inf),[17],23.9 µM·h
same,IC50,Plasmodium falciparum [18],0.0014 µM
same,AUC(0-inf),[19],524 µM·h
same,IC50,Glucagon receptor,> 30 µM
same,IC50,Endothelin-1 receptor,> 30 µM
same,IC50,[20],> 10 µM
same,IC50,[21],> 10 µM
same,solubility,[22],39 µg/mL
same,IC50,[23],> 10 µM
same,CC50 at 96 h,[24],> 25 µM
same,AUC(0-inf),[25],61.3 µM·h
same,IC50,[26],> 10 µM
same,half-life,in vivo [27],10.7 h
same,IC50,Glucocorticoid receptor,> 30 µM
same,IC50,Adenosine receptor A2a,> 30 µM
same,IC50,[28],> 10 µM
same,half-life,in vivo [29],27.7 h
same,inhibition (INH),Plasmodium falciparum [30],50%
same,Activity,[31],Non-toxic
same,Vd,[32],3.04 L/kg
same,IC50,Thromboxane A2 receptor,> 30 µM
same,IC50,[33],> 10 µM
